# Patent US20110009268A1, “IPBC-CONTAINING COACERVATES” (priority 2006, published 2011)
# Test system: mold fungi
# Assay: Coatings test: mold resistance of emulsion paint (formula A)
# Method: The substance under test was incorporated into the test paint, at the stated concentration, using a dissolver.
# The procedure for testing the emulsion paints for mold resistance was as follows:
# The coating material under test was applied to both sides of a suitable substrate. In order to obtain realistic results, one portion of the test specimens was leached with running water (24 h, 20° C.) prior to the test for mold resistance; a further portion was treated with a warm stream of fresh air (7 days, 40° C.).
# The samples thus prepared were then placed on an agar nutrient medium, and both samples and nutrient medium were contaminated with fungal spores. Inspection took place after 2-3 weeks' storage (29±1° C., 80-90% relative humidity).
# Contamination was carried out using spores of the following mold fungi which are known to destroy coating materials or which are frequently encountered on coatings:
# Alternaria tennis Aspergillus flavus Aspergillus niger Aspergillus ustus Cindosporum herbarum Paecilomyces variotii Penicillum citrium Aureobasidium pullulans Stachybotrys chartarum
smiles,measurement,setting,value
"CCCCNC(=O)OCC#CI [pure IPBC, 3-iodo-2-propynyl butylcarbamate]",mold resistance of coating,"0.08% based on solids content of the emulsion paint, without leaching and wind tunnel exposure",mold-resistant
same,activity of coating against mold,"0.16% based on solids content of the emulsion paint, after leaching and wind tunnel exposure",active
